Experimental data from patent publication US4151300A, “Acetohydroxamic acids” (Laboratoire L. Lafon, priority 1976, dated 1979).
≈ marks a conversion by molar mass, not a printed value. Entries after “also recorded” stand apart in the source; their conditions may differ.

Tests used:
mice [1] = experiment: interaction with reserpine (hypothermia, ptosis); format: in vivo; settings: i.p.
rats [2] = experiment: interaction with amphetamine (stereotypies in rats); format: in vivo; settings: rats, i.p.
Outline: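 Test products given intraperitoneally as a gum arabic suspension (5 ml/kg in rats). Thirty minutes later, amphetamine 2 mg/kg is injected intraperitoneally; 6 animals per dose.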

mice [3] = experiment: inter-group aggressiveness (number of fights); format: in vivo; settings: for inter-group aggressiveness: mice, i.p.
Outline: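 Mice were housed either three weeks (CRL 40,373) or 18 days (CRL 40,385, groups of 3) on each side of an opaque cage partition. Fights were counted over 15 min.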

mice [4] = experiment: spontaneous motility (actimeter); format: in vivo; settings: mice, i.p., 32 and 128 mg/kg
Outline: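 Compounds given i.p. as a gum arabic suspension at 20 ml/kg. Thirty minutes after dosing, mice (6 per dose, 12 controls) went into an actimeter and motility was recorded for half an hour.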

mice [5] = experiment: toxicity (isolated mice, intraperitoneal); format: in vivo
Procedure: The following text summarises a part of the results of the tests which were carried out with the products according to the invention, these products (unless otherwise stated) being administered intraperitoneally, in suspension in a gum solution (gum arabic), in a volume of 20 ml/kg in the case of mice and of 5 ml/kg in the case of rats.

mice [6] = experiment: interaction with apomorphine in mice; format: in vivo
rats [7] = experiment: interaction with apomorphine (stereotype behaviour in rats); format: in vivo; settings: rats, i.p.
Outline: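 Rats in groups of six received the test compound intraperitoneally as a gum arabic suspension at 5 ml/kg. Thirty minutes later they were given apomorphine 0.5 mg/kg subcutaneously, and stereotyped behaviour was scored.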

mice [8] = experiment: interaction with oxotremorine (temperature, trembling, peripheral cholinergic symptoms); format: in vivo; settings: mice, i.p.
mice [9] = experiment: motility reduced by habituation to a cage (residual motility); format: in vivo; settings: i.p., 128 mg/kg
Outline: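 Mice habituated 18 hours in actimeters received compound intraperitoneally as a gum arabic suspension (20 ml/kg) and were returned to their cages. Motility was recorded for 30 minutes starting half an hour after dosing, with 6 animals per dose and 12 controls.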

central nervous system = experiment: psychopharmacological study / behaviour; format: in vivo, mice; settings: for sedation / sedative effect: high dose(s)
mice [10] = experiment: motility reduced by hypoxia treatment (motor recovery); format: in vivo; settings: mice, i.p.
mice [11] = experiment: traction (motor incoordination); format: in vivo, mice (EVIC CEBA strain); settings: i.p.
mice [12] = experiment: electrical shock (convulsing effects); format: in vivo, mice (EVIC CEBA strain); settings: i.p., also gastric administration
mice [13] = experiment: four-plate test; format: in vivo, mice (EVIC CEBA strain); settings: i.p., also gastric administration
[14] = solubility in distilled water; format: physicochemical; settings: read-out: solubility limit
man = experiment: clinical use in man; format: in vivo; settings: pill 20 mg, 3 to 4 pills per day

O=C(CNc1ccc(Cl)c(Cl)c1)NO [CRL 40,500, (3,4-Dichloroanilino)-acetohydroxamic acid]
reserpine-induced hypothermia (mice [1]): aggravation of the hypothermia due to reserpine
amphetamine-induced stereotypies (rats [2]): does not alter the stereotypies induced by apomorphine (rats and mice) and by amphetamine (rats)
aggressiveness (mice [3]; low dose): reduction of aggressiveness which is substantial at low doses
inter-group aggressiveness (mice [3]; all the doses studied): reduces the inter-group aggressiveness of mice
inter-group aggressiveness (mice [3]; high doses (64 and 128 mg/kg)): a reduction of the effect is observed
inter-group aggressiveness (mice [3]; lowest dose used (8 mg/kg)): present with considerable intensity
spontaneous motility (mice [4]): moderately reduces the spontaneous motility of mice
mortality (mice [5]; i.p., 256 mg/kg): the mice survive
average time to death (mice [5]; i.p., 512 mg/kg): 18 h
relative toxicity (mice [5]; mouse, in vivo, ip): more toxic than the products studied above
symptoms / behaviour (mice [5]; mouse, in vivo, ip, 256 mg/kg): the symptoms are identical
apomorphine-induced stereotypies (mice [6]): does not alter the stereotypies induced by apomorphine
apomorphine-induced stereotypies (rats [7]): does not alter the stereotypies induced by apomorphine
temperature (oxotremorine-induced hypothermia) (mice [8]): aggravation of the hypothermia due to reserpine and to oxotremorine
peripheral effects of oxotremorine (mice [8]; 128 and 32 mg/kg): increases the peripheral effects of oxotremorine
motility reduced by habituation to the cage (mice [9]): moderate resumption of the motor activity of mice habituated to their cage
sedation / sedative effect (central nervous system): moderate sedation at high doses
motor recovery after hypoxia/anoxia by pressure reduction (mice [10]): does not cause a marked improvement in the motor recovery of mice

O=C(CC(=O)Nc1c(Cl)cccc1Cl)NO [CRL 40,510, 2,6-Dichlorophenyl-carbamoyl-acetohydroxamic acid]
motor incoordination / incapacity (mice [11]): absence of motor incapacity
anti-convulsive effect (mice [12]): of the anti-convulsive type
anxiolytic effect (four plate test) (mice [13]): effects of the anxiolytic type
solubility [14]: ~13 mg/mL (≈ 49.4 mM)
LD-O (maximum non-lethal dose) (mice [5]; mice, i.p.): greater than 1,024 mg/kg
oxotremorine-induced trembling (mice [8]): moderately antagonistic to the trembling movements caused by oxotremorine
sedation / sedative effect (central nervous system): moderate sedative effect
psychopharmacological profile / conclusion (central nervous system; mouse, in vivo): comes close to the benzodiazepines in respect of anxiolytic and anti-convulsive activities; also recorded: relative resistance to sedation
clinical result (man): good results in man as an anxiolytic sedative agent
